Assay results from US20250296953A1, “3,4-THIAZOLO-STEROIDS AND METHODS OF MAKING AND USING THE SAME” (Arkansas State University - Jonesboro, priority 2018, published 2025).
Read-outs that look alike come from different tables or passages of the source.

How the values were obtained:
glioblastoma (SF-295) = assay: NCI 60 five dose screen
[1] = test system: 60 different human tumor cell lines; assay: NCI Development Therapeutics Program 60 cell line screen, one dose; type: cell-based
RPMI-8226 = assay: NCI 60 five dose screen
NCI-H522 (NSCLC) = assay: NCI 60 one dose screen; type: cell-based, human; conditions: Non-small Cell Lung Cancer
SF-539 = assay: NCI 60 one dose screen; type: cell-based, human; conditions: one dose; CNS Cancer; SF-539
[2] = test system: 60 different human tumor cell lines; conditions: for GI50 / TGI: five dose
[3] = RPMI-8226 (Leukemia), five dose
[4] = A549/ATCC (Non-small Cell Lung Cancer)
[5] = EKVX (Non-small Cell Lung Cancer)
[6] = HOP-62 (Non-small Cell Lung Cancer)
[7] = HOP-92 (Non-small Cell Lung Cancer)
[8] = MDA-MB-231/ATCC (Breast Cancer)

## (1S,2R,13R,14S,18S)-7-(3-fluoroanilino)-2,18-dimethyl-6-thia-8-azapentacyclo[11.7.0.02,10.05,9.014,18]icosa-5(9),7,10-trien-17-one [IIa.8]
Glioblastoma (SF-295); SF-295 (CNS Cancer), five dose
  GI50: 1.19 µM
  TGI: 2.97E−6
Glioblastoma (SF-295); glioblastoma SF-295
  GI50: 1.19 µM
Glioblastoma (SF-295); read-out: LC50, SF-295 (CNS Cancer), five dose
  CC50: 7.37 µM
[1]; Breast Cancer, BT-549
  Growth Percent: −8.61%
[1]; Breast Cancer, HS 578T
  Growth Percent: 35.44%
[1]; Breast Cancer, MCF7
  Growth Percent: 4.46%
[1]; Breast Cancer, MDA-MB-231/ATCC
  Growth Percent: 38.20%
[1]; Breast Cancer, MDA-MB-468
  Growth Percent: −2.99%
[1]; Breast Cancer, T-47D
  Growth Percent: −0.76%
[1]; CNS Cancer, SF-268
  Growth Percent: 55.66%
[1]; CNS Cancer, SNB-19
  Growth Percent: 62.83%
[1]; CNS Cancer, SNB-75
  Growth Percent: 18.66%
[1]; CNS Cancer, U251
  Growth Percent: 15.66%
[1]; Colon Cancer, COLO 205
  Growth Percent: 47.59%
[1]; Colon Cancer, HCC-2998
  Growth Percent: 75.50%
[1]; Colon Cancer, HCT-116
  Growth Percent: −68.78%
[1]; Colon Cancer, HT29
  Growth Percent: −3.32%
[1]; Colon Cancer, KM12
  Growth Percent: 38.74%
[1]; Colon Cancer, SW-620
  Growth Percent: 4.62%
[1]; Leukemia, CCRF-CEM
  Growth Percent: 4.95%
[1]; Leukemia, HL-60(TB)
  Growth Percent: 8.58%
[1]; Leukemia, K-562
  Growth Percent: −0.51%
[1]; Leukemia, MOLT-4
  Growth Percent: −3.78%
[1]; Leukemia, RPMI-8226
  Growth Percent: −22.26%
[1]; Leukemia, SR
  Growth Percent: −11.87%
[1]; Melanoma, LOX IMVI
  Growth Percent: 6.22%
[1]; Melanoma, M14
  Growth Percent: 44.82%
[1]; Melanoma, MALME-3M
  Growth Percent: 22.82%
[1]; Melanoma, MDA-MB-435
  Growth Percent: 35.93%
[1]; Melanoma, SK-MEL-2
  Growth Percent: 21.81%
[1]; Melanoma, SK-MEL-5
  Growth Percent: 32.06%
[1]; Melanoma, SK-MEL-28
  Growth Percent: 39.44%
[1]; Melanoma, UACC-62
  Growth Percent: 37.50%
[1]; Melanoma, UACC-257
  Growth Percent: 73.04%
[1]; Non-small Cell Lung Cancer, A549/ATCC
  Growth Percent: 35.39%
[1]; Non-small Cell Lung Cancer, EKVX
  Growth Percent: 46.43%
[1]; Non-small Cell Lung Cancer, HOP-62
  Growth Percent: 20.40%
[1]; Non-small Cell Lung Cancer, HOP-92
  Growth Percent: 68.93%
[1]; Non-small Cell Lung Cancer, NCI-H23
  Growth Percent: 55.09%
[1]; Non-small Cell Lung Cancer, NCI-H226
  Growth Percent: 71.91%
[1]; Non-small Cell Lung Cancer, NCI-H322M
  Growth Percent: 55.83%
[1]; Non-small Cell Lung Cancer, NCI-H460
  Growth Percent: 51.98%
[1]; Ovarian Cancer, IGROV1
  Growth Percent: 60.02%
[1]; Ovarian Cancer, NCI/ADR-RES
  Growth Percent: 55.43%
[1]; Ovarian Cancer, OVCAR-3
  Growth Percent: −5.24%
[1]; Ovarian Cancer, OVCAR-4
  Growth Percent: 59.21%
[1]; Ovarian Cancer, OVCAR-5
  Growth Percent: 65.53%
[1]; Ovarian Cancer, OVCAR-8
  Growth Percent: 39.56%
[1]; Ovarian Cancer, SK-OV-3
  Growth Percent: −18.44%
[1]; Prostate Cancer, DU-145
  Growth Percent: 17.23%
[1]; Renal Cancer, 786-0
  Growth Percent: −13.93%
[1]; Renal Cancer, A498
  Growth Percent: 22.95%
[1]; Renal Cancer, ACHN
  Growth Percent: 1.56%
[1]; Renal Cancer, CAKI-1
  Growth Percent: 50.45%
[1]; Renal Cancer, RXF 393
  Growth Percent: −28.44%
[1]; Renal Cancer, SN12C
  Growth Percent: 28.50%
[1]; Renal Cancer, TK-10
  Growth Percent: 20.27%
[1]; Renal Cancer, UO-31
  Growth Percent: −26.89%
RPMI-8226; [3]
  GI50: 0.859 µM
  TGI: 3.90E−6
RPMI-8226; leukemia cell line RPMI-8226
  50% growth inhibition (GI50): submicromolar
RPMI-8226; read-out: LC50, RPMI-8226 (Leukemia), five dose
  CC50: > 100 µM
NCI-H522 (NSCLC)
  Growth Percent: −43.73%
SF-539
  Growth Percent: −5.93%
[2]
  CC50: > 100 µM
[2]; 786-0 (Renal Cancer)
  GI50: 1.43 µM
  TGI: 2.83E−6
[2]; A498 (Renal Cancer)
  GI50: 2.16 µM
  TGI: 6.77E−6
[2]; [4]
  GI50: 2.58 µM
  TGI: 7.50E−6
[2]; ACHN (Renal Cancer)
  GI50: 1.78 µM
  TGI: 3.24E−6
[2]; BT-549 (Breast Cancer)
  GI50: 1.54 µM
  TGI: 3.62E−6
[2]; CAKI-1 (Renal Cancer)
  GI50: 1.99 µM
  TGI: 5.73E−6
[2]; CCRF-CEM (Leukemia)
  GI50: 1.9 µM
  TGI: >1.00E−4
[2]; COLO 205 (Colon Cancer)
  GI50: 2.16 µM
  TGI: 4.81E−6
[2]; DU-145 (Prostate Cancer)
  GI50: 1.93 µM
  TGI: 4.87E−6
[2]; [5]
  GI50: 2.5 µM
  TGI: 1.85E−5
[2]; HCC-2998 (Colon Cancer)
  GI50: 3.55 µM
  TGI: 1.46E−5
[2]; HCT-15 (Colon Cancer)
  GI50: 1.58 µM
  TGI: 4.08E−6
[2]; HCT-116 (Colon Cancer)
  GI50: 1.59 µM
  TGI: 3.24E−6
[2]; HL-60(TB) (Leukemia)
  GI50: 2.73 µM
  TGI: 8.00E−6
[2]; [6]
  GI50: 2.07 µM
  TGI: 5.34E−6
[2]; [7]
  GI50: 2.25 µM
  TGI: 4.17E−6
[2]; HS 578T (Breast Cancer)
  GI50: 3.14 µM
  TGI: >1.00E−4
[2]; HT29 (Colon Cancer)
  GI50: 1.49 µM
  TGI: 3.51E−6
[2]; IGROV1 (Ovarian Cancer)
  GI50: 1.89 µM
  TGI: 3.83E−6
[2]; K-562 (Leukemia)
  GI50: 1.86 µM
[2]; KM12 (Colon Cancer)
  GI50: 3 µM
  TGI: 1.24E−5
[2]; LOX IMVI (Melanoma)
  GI50: 1.67 µM
  TGI: 3.21E−6
[2]; M14 (Melanoma)
  GI50: 2.36 µM
  TGI: 7.23E−6
[2]; MALME-3M (Melanoma)
  GI50: 1.94 µM
  TGI: 5.04E−6
[2]; MCF7 (Breast Cancer)
  GI50: 1.37 µM
  TGI: 3.28E−6
[2]; [8]
  GI50: 2.11 µM
  TGI: 4.59E−6
